Values quoted from earlier work in US20260335339A1, “COMPOSITIONS FOR DERMAL/TRANSDERMAL DELIVERY AND COSMETIC USE” (YISSUM RESEARCH DEVELOPMENT COMPANY OF THE HEBREW …, priority 2022, published 2026).

Conditions: lipophilic fluorescent molecule

O=C1OC2(c3ccc(O)cc3Oc3cc(O)ccc32)c2ccc(N=C=S)cc21 [FITC, fluorescein isothiocyanate]
log p: 4.3
